Reference: paper PMC11724075, “Small-molecule-induced ERBB4 activation to treat heart failure” (Nature Communications, 2025)
Values joined by “and” are separate entries in the source; they are usually repeats but may differ in a detail not shown here. Equal values may be shown once.

Experiments:
mouse model of MI = assay: Mouse model of MI, histology: CSA, capillaries, interstitial fibrosis, scar size; format: in vivo
Method: Twelve-week-old female and male Balb/cJ (Charles River, 000651) mice were randomized into either the ctrl or MI group. Mice in the MI group underwent surgical ligation of the LAD, while mice in the ctrl group underwent a sham procedure (n = 8 female mice, n = 10 male mice). Briefly, all mice received an injection of 0.1 mg/kg buprenorphine (Produlab Pharma) before induction of anesthesia with 8% sevoflurane (Zoetis). Anesthesia was maintained with 4.5% sevoflurane and mice were intubated and ventilated. An incision of 15 mm was made on the left side of the thorax and the thoracic cavity was opened at the third intercostal space using blunt forceps. The LAD was permanently ligated with a 8/0 polypropylene monofilament sutures (Ethicon, F1894) after which the thoracic cavity and skin were closed with 6/0 polypropylene monofilament sutures (Ethicon, F1841). and 5/0 polyamide 6 sutures (Ethilon, F2412H), respectively. Mice received another dose of 0.1 mg/kg buprenorphine 6–8 h after the initial dose. Two days after surgery, cardiac ultrasound was performed to exclude mice without successful MI (i.e. displaying hypokinesia in ≥2 out of 5 segments). […] Cardiac ultrasound was performed weekly. After 4 weeks of treatment, mice were euthanized, and hearts were collected.
Hearts were fixed in 4% PFA, paraffin-embedded, and cut into 5-µm sections. Images were acquired with an Olympus BX43 microscope (Olympus Stream Motion Software) or a CELENA® S Digital Imaging System and analyzed with ImageJ 2.14.0 software. Collagen distribution was visualized by Masson’s trichrome staining. Cardiac total fibrosis was expressed as the ratio of positively stained fibrotic area (blue) to the total area and perivascular fibrosis as the ratio of fibrotic area to vascular lumen area. Scar size was determined by measuring the scar length over the […]. Hypertrophy and vascularisation were visualized via an isolectin-B4/WGA/DAPI staining. Quantification was performed by a person blinded to the treatment protocol.

ERBB2/ERBB3 = biological target: T1, ERBB2/ERBB3 (Homo sapiens, UniProt P21860); assay: PathHunter U2OS ERBB2/ERBB3 dimerization assay; format: cell-based; conditions: for ERBB3/ERBB2 dimerization signal: relative to signal with 0.1 µM NRG1, single biological replicates
T1 construct: host or cells: U2OS (osteosarcoma cells), PathHunter engineered line
Method: (§1) PathHunter U2OS ERBB4/ERBB4 (osteosarcoma cells; Eurofins, 93-0961C3), U2OS ERBB2/ERBB4 (osteosarcoma cells; Eurofins, 493-0960C3), ERBB2/ERBB3 (osteosarcoma cells; Eurofins, 93-1042C3) and ERBB1/ERBB1 (osteosarcoma cells; Eurofins, 93-0989C3) dimerization cell lines were cultured according to the manufacturer’s instructions. Briefly, cells were cultured in Cell Culture Reagent 103 (Eurofins, 92-3103 G) supplemented with 250 µg/mL Hygromycin B (Eurofins, 92-0029) and 500 µg/mL G418 (Eurofins, 92-0030), and were maintained at 37 °C in humidified atmosphere of 5% CO2. HCFs (Innoprot, P10454) were cultured in fibroblast medium (Innoprot, P60108) supplemented with 10% (v/v) fetal bovine serum (FBS, Innoprot), 10% (v/v) fibroblast growth supplement (Innoprot), and 1% (v/v) penicillin/streptomycin solution (Innoprot). iAMs[33] (kindly provided by LUMC) were cultured in Advanced DMEM F-12 (Thermo Fisher Scientific, 12634028) supplemented with 2% (v/v) heat-inactivated FBS (Thermo Fisher Scientific, 10270106), 1% (v/v) penicillin/streptomycin (10,000 units/mL and 10 mg/mL respectively, Thermo Fisher Scientific, 15140122), 1× GlutaMAX (Thermo Fisher Scientific, 35050061), and 100 ng/mL doxycycline (Tocris, 4090) for proliferation. To induce differentiation, iAMs were transferred to medium without doxycycline.
(§2) U2OS ERBB4/ERBB4 dimerization cells were seeded at a density of 5 × 10^4 cells/well in 100 µL Cell Plating 0 Reagent, in white 96-well plates (PerkinElmer, 6005680) and incubated for 24 h at 37 °C, 5% CO2. […] Next, 110 µL PathHunter Flash Detection Reagent was added to each well and incubated at RT for 1 h after which the luminescence signal was measured using the Luminoskan Ascent (Thermo Fisher Scientific). […] The same experimental set-up was used for the U2OS ERBB2/ERBB4, U2OS ERBB2/ERBB3 and U2OS ERBB1/ERBB1 dimerization cell lines.

ERBB2/ERBB4 = biological target: T2, ERBB2/ERBB4 (Homo sapiens, UniProt Q15303); assay: PathHunter U2OS ERBB2/ERBB4 dimerization assay; format: cell-based; conditions: for ERBB4/ERBB2 dimerization signal: relative to signal with 0.1 µM NRG1, single biological replicates
T2 construct: host or cells: U2OS (osteosarcoma cells), PathHunter engineered line
Method: as §1, §2

iAMs = assay: WST-1 cell viability assay in H2O2-treated iAMs; format: cell-based, rat; parameters: In vitro cell viability assay with WST-1: unit not given here
Method: Following the transfer of 150 µL of culture medium for the ToxiLight assay, 7 µL of WST-1 reagent (Merck, 5015944001) was added directly to the remaining cell culture medium in each well. The cells were incubated at 37 °C for an additional 4 h. After incubation, the absorbance of the samples was measured at 450 nm (690 nm was used as reference wavelength and subtracted) using a microplate reader (Epoch). […]

[1] = MI experiment, female mice, MI/EF-1

T2 sequence (Q15303 26-1308): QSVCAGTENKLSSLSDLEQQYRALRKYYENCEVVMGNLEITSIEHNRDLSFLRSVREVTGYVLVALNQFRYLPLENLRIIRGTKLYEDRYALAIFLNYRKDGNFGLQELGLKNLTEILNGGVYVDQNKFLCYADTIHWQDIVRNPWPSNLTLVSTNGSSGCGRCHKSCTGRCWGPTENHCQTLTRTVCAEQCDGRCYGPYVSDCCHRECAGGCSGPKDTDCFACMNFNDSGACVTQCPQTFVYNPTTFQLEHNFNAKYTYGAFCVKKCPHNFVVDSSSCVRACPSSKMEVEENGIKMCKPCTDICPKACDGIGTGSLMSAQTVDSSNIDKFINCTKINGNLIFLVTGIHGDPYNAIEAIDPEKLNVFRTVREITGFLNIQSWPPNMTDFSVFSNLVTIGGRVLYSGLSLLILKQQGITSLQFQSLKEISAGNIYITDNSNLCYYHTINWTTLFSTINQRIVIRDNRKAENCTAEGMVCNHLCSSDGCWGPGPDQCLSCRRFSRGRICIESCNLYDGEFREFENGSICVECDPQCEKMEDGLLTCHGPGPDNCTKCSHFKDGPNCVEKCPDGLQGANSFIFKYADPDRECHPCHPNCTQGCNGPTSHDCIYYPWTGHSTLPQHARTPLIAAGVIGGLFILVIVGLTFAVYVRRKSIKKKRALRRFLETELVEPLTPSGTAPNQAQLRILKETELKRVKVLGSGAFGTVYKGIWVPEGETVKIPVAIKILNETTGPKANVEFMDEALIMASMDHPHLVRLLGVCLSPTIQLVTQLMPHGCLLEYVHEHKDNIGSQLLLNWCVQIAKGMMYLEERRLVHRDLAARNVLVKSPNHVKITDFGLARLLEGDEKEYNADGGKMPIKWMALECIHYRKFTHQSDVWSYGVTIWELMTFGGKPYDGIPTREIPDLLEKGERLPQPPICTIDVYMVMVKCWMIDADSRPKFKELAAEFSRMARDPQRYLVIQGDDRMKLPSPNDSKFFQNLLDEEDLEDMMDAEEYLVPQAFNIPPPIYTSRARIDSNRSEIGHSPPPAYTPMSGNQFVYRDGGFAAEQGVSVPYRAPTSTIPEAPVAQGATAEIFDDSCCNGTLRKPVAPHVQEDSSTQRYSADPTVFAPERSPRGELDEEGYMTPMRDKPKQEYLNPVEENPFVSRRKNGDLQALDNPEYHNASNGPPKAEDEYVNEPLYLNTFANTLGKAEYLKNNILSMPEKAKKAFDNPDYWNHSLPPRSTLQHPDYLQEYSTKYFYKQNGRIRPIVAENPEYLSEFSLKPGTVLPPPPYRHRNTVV
T2 sequence (P04626 23-1255 partner): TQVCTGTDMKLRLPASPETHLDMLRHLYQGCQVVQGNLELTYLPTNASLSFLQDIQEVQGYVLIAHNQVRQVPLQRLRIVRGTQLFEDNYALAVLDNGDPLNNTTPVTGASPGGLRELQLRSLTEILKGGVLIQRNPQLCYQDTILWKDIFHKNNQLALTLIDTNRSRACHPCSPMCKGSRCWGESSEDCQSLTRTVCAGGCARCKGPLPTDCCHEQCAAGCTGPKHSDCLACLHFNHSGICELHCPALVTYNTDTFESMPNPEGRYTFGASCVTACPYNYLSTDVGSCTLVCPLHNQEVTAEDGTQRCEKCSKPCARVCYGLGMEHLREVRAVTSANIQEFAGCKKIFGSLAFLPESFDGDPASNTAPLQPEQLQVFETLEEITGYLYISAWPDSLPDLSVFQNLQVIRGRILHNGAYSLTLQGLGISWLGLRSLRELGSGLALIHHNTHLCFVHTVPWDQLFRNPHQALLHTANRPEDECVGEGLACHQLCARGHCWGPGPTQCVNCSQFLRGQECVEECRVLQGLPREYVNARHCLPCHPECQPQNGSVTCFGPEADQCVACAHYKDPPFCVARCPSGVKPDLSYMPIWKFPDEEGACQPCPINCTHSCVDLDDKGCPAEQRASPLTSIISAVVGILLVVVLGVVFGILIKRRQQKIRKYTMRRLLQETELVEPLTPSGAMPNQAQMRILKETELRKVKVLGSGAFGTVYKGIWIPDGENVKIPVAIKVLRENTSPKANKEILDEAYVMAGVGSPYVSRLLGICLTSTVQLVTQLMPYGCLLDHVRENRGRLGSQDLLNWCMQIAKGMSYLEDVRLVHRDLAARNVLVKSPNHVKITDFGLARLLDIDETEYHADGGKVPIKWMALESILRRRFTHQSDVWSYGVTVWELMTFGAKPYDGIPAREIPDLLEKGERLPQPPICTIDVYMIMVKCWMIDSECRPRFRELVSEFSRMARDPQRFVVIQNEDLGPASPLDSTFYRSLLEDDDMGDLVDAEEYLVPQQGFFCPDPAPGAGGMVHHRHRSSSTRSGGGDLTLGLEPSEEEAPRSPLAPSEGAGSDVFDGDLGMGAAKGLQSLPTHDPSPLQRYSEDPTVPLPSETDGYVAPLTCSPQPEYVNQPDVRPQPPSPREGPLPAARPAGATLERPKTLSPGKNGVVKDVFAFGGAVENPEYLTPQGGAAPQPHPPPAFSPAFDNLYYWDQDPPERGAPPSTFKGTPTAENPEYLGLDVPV
T1 sequence (P21860 20-1342): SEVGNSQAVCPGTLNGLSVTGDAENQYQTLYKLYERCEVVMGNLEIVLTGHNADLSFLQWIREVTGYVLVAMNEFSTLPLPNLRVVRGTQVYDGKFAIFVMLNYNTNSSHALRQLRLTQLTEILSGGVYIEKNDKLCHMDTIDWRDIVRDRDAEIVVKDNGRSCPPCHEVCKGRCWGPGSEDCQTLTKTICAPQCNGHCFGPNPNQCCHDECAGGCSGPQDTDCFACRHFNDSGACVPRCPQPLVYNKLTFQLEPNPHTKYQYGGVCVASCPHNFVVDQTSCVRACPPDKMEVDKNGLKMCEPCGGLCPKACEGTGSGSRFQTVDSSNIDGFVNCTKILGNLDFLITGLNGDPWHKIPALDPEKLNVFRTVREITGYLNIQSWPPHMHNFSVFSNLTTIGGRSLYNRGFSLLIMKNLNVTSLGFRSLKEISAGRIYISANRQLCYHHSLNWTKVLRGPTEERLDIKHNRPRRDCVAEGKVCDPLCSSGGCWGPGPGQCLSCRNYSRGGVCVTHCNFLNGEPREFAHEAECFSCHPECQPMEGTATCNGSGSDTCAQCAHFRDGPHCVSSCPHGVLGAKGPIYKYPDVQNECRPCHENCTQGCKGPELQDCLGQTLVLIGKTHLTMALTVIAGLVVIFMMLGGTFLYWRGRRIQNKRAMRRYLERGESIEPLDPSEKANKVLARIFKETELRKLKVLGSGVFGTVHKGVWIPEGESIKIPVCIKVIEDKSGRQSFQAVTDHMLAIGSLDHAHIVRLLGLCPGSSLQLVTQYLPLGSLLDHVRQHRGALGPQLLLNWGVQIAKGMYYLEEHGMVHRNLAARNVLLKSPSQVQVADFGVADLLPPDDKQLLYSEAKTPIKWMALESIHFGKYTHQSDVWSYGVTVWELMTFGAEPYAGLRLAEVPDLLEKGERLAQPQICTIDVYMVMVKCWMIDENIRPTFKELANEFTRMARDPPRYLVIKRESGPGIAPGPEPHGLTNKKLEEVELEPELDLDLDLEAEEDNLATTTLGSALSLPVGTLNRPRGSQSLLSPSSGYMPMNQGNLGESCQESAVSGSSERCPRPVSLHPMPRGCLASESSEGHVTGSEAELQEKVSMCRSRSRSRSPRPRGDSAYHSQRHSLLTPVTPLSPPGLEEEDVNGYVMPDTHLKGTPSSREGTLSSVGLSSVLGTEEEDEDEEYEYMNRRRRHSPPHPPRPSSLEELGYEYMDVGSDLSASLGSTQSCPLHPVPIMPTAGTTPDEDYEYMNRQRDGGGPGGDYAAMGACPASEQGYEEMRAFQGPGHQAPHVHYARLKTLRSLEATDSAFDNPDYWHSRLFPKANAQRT
T1 sequence (P04626 23-1255, further chain): as the sequence (P04626 23-1255 partner) above

Q: With `O=C(NC1CC1)C(Sc1nc2ccccc2c(=O)n1C1CCCC1)c1ccccc1` (centres unmarked) [EF-1] as the compound, how does the “capillary density (#cap./100 CMs)” value (mouse model of MI; [1]) read?
A: Its value is 126.379 #cap./100 CMs and 126.085 #cap./100 CMs and 117.771 #cap./100 CMs and 154.255 #cap./100 CMs and 147.06 #cap./100 CMs and 123.257 #cap./100 CMs and 102.661 #cap./100 CMs.

Q: And the “capillary density (#cap./area)” value (mouse model of MI; [1])?
A: Its value is 2.749 #cap./area and 3.344 #cap./area and 2.607 #cap./area and 4.068 #cap./area and 3.029 #cap./area and 3.536 #cap./area and 2.904 #cap./area.

Q: What about the “cardiomyocyte cross-sectional area in MI/EF-1 group (in words)” value (mouse model of MI; both male and female mice) of the same compound?
A: The value was “significant increase in cross-sectional area”.

Q: What about the “interstitial fibrosis in the remote myocardium of the infarcted hearts (in words)” value (mouse model of MI; female mice) of the same compound?
A: Its value is “significantly lower”.

Q: And the “number of capillaries per area (µm²) of the heart in MI/EF-1 group (in words)” value (mouse model of MI; female mice)?
A: Its value is “marked decrease in number of capillaries per area”.

Q: And the “scar size (in words)” value (mouse model of MI; female or male mice)?
A: The value was “did not affect scar size”.

Q: And the EC50 (ERBB2/ERBB3)?
A: The EC50 was > 32 µM.

Q: What about the “stimulatory effect on ERBB2/ERBB3 heterodimerization (in words)” value (ERBB2/ERBB3) of the same compound?
A: The value was “lower compared to ERBB4 homodimerization”.

Q: And the ERBB3/ERBB2 dimerization signal (ERBB2/ERBB3; 3.125e-8 M)?
A: Its ERBB3/ERBB2 dimerization signal is 0.

Q: What about the ERBB3/ERBB2 dimerization signal (ERBB2/ERBB3; 6.25e-8 M) of the same compound?
A: Its ERBB3/ERBB2 dimerization signal is 4.35 and 0.16 and -2.68 and -0.63 and -0.56.

Q: And the ERBB3/ERBB2 dimerization signal (ERBB2/ERBB3; 1.25e-7 M)?
A: The ERBB3/ERBB2 dimerization signal was 2.37 and 0.16 and -2.68 and -1.68 and -1.97.

Q: And the ERBB3/ERBB2 dimerization signal (ERBB2/ERBB3; 2.5e-7 M)?
A: Its ERBB3/ERBB2 dimerization signal is 0.62 and 4.11 and 0.43 and -3.27 and -3.43.

Q: What about the ERBB3/ERBB2 dimerization signal (ERBB2/ERBB3; 5e-7 M) of the same compound?
A: Its ERBB3/ERBB2 dimerization signal is 0.97 and 1.82 and 6.28 and 0.82 and -2.96 and -1.11.

Q: What about the ERBB3/ERBB2 dimerization signal (ERBB2/ERBB3; 1e-6 M) of the same compound?
A: Its ERBB3/ERBB2 dimerization signal is 0.96 and 9.29 and 2.03 and -1.53 and -0.18.

Q: And the ERBB3/ERBB2 dimerization signal (ERBB2/ERBB3; 2e-6 M)?
A: The ERBB3/ERBB2 dimerization signal was 1.34 and 1.02 and 9.84 and 3.13 and 0.57 and 2.12.

Q: What about the ERBB3/ERBB2 dimerization signal (ERBB2/ERBB3; 4e-6 M) of the same compound?
A: Its ERBB3/ERBB2 dimerization signal is 3.1 and 10.27 and 4.36 and 4.61 and 5.16.

Q: What about the ERBB3/ERBB2 dimerization signal (ERBB2/ERBB3; 8e-6 M) of the same compound?
A: The ERBB3/ERBB2 dimerization signal was 4.89 and 3.3 and 12.92 and 4.35 and 9.79 and 9.65.

Q: And the ERBB3/ERBB2 dimerization signal (ERBB2/ERBB3; 1.6e-5 M)?
A: Its ERBB3/ERBB2 dimerization signal is 11.23 and 14.98 and 10.81 and 10.98 and 13.88.

Q: And the ERBB3/ERBB2 dimerization signal (ERBB2/ERBB3; 3.2e-5 M)?
A: The ERBB3/ERBB2 dimerization signal was 23.82 and 14.98 and 24 and 17.43 and 15.59 and 14.95.

Q: And the “half-life with human liver microsomes” value?
A: The value was > 6 h.

Q: And the EC50 (ERBB2/ERBB4)?
A: The EC50 was > 32 µM.

Q: What about the ERBB4/ERBB2 dimerization signal (ERBB2/ERBB4; 3.125e-8 M) of the same compound?
A: Its ERBB4/ERBB2 dimerization signal is 0.

Q: And the ERBB4/ERBB2 dimerization signal (ERBB2/ERBB4; 6.25e-8 M)?
A: The ERBB4/ERBB2 dimerization signal was 10.52 and 1.76 and 3.95 and -0.62 and 8.84 and 32.1 and -4.84 and 13.1.

Q: And the ERBB4/ERBB2 dimerization signal (ERBB2/ERBB4; 1.25e-7 M)?
A: Its ERBB4/ERBB2 dimerization signal is 11.16 and 1.7 and 0.22 and 2.37 and 10.84 and 42.31 and 0.8 and 15.8.

Q: And the ERBB4/ERBB2 dimerization signal (ERBB2/ERBB4; 2.5e-7 M)?
A: The ERBB4/ERBB2 dimerization signal was 14.28 and 2.37 and -0.2 and 2.18 and 11.16 and 44.62 and 2.21 and 32.89.

Q: And the ERBB4/ERBB2 dimerization signal (ERBB2/ERBB4; 5e-7 M)?
A: The ERBB4/ERBB2 dimerization signal was 15.8 and 3.34 and -0.84 and 2.5 and 14.03 and 46.76 and 10.28 and 38.19.

Q: And the ERBB4/ERBB2 dimerization signal (ERBB2/ERBB4; 1e-6 M)?
A: The ERBB4/ERBB2 dimerization signal was 17.47 and 6.72 and 2.79 and 5.79 and 18.63 and 53.25 and 13.21 and 49.02.

Q: And the ERBB4/ERBB2 dimerization signal (ERBB2/ERBB4; 2e-6 M)?
A: The ERBB4/ERBB2 dimerization signal was 23.23 and 10.36 and 6.17 and 10.55 and 22.36 and 58.49 and 25.9 and 62.1.

Q: What about the ERBB4/ERBB2 dimerization signal (ERBB2/ERBB4; 4e-6 M) of the same compound?
A: The ERBB4/ERBB2 dimerization signal was 39.65 and 19.88 and 18.63 and 20.82 and 41.51 and 62.22 and 30.3 and 62.16.

Q: What about the ERBB4/ERBB2 dimerization signal (ERBB2/ERBB4; 8e-6 M) of the same compound?
A: Its ERBB4/ERBB2 dimerization signal is 43.57 and 23.14 and 20.33 and 27.19 and 40.97 and 69.15 and 32.21 and 63.74.

Q: And the ERBB4/ERBB2 dimerization signal (ERBB2/ERBB4; 1.6e-5 M)?
A: Its ERBB4/ERBB2 dimerization signal is 49.69 and 37.91 and 30.09 and 36.81 and 54.68 and 124.7 and 60.3 and 94.64.

Q: What about the ERBB4/ERBB2 dimerization signal (ERBB2/ERBB4; 3.2e-5 M) of the same compound?
A: The ERBB4/ERBB2 dimerization signal was 99.26 and 72.09 and 64.59 and 71.61 and 99.65 and 139.93 and 119.85 and 114.61.

Q: And the “efficacy in ERBB2/ERBB4 dimerization assay at the highest concentration (in words)” value (ERBB2/ERBB4; highest concentration)?
A: Its value is “like the natural ligand NRG1”.

Q: And the “cell viability, WST-1 absorbance (in words)” value (iAMs; 100 µM H2O2, pre-treatment with EF-1)?
A: Its value is “significantly increased cell viability”.

Q: And the “In vitro cell viability assay with WST-1” value (iAMs; H2O2/EF-1, individual replicates)?
A: Its value is 1.268 and 0.9224 and 0.7959 and 0.7633 and 0.6939 and 1.2898 and 0.9164 and 0.8058 and 0.7767 and 0.7185 and 1.306 and 0.9585 and 0.8456 and 0.8168 and 0.7703 and 1.242 and 0.9643 and 0.8304 and 0.8393 and 0.7321.
